In ChEMBL document CHEMBL6087387, “Carbon Monoxide as a Potential Therapeutic Agent: A Molecular Analysis of Its Safety Profiles” (J Med Chem, 2024):

Assays:
[1] = Plasma concentration in rat at 100 mg/kg, po after 2 hrs; type: ADME, organism-based
[2] = Plasma concentration in rat at 30 mg/kg, po after 2 hrs
[3] = Plasma concentration in rat at 250 mg/kg, po after 2 hrs; type: ADME, organism-based

## CC(=O)O[C@H]1C(=O)[C@@]2(C)[C@H]([C@H](OC(=O)c3ccccc3)[C@]3(O)C[C@H](OC(=O)[C@H](O)[C@@H](NC(=O)c4ccccc4)c4ccccc4)C(C)=C1C3(C)C)[C@]1(OC(C)=O)CO[C@@H]1C[C@@H]2O [PACLITAXEL]
[1]
  concentration at 2 h: 3.1 µM

## COc1ccc2cc([C@H](C)C(=O)O)ccc2c1 [NAPROXEN]
[2]
  concentration at 2 h: > 300 µM

## O=c1[nH]cc(F)c(=O)[nH]1 [FLUOROURACIL]
[3]
  concentration at 2 h: 420 µM

## COc1cccc2c1C(=O)c1c(O)c3c(c(O)c1C2=O)C[C@@](O)(C(=O)CO)C[C@@H]3O[C@H]1C[C@H](N)[C@H](O)[C@H](C)O1 [DOXORUBICIN]
[1]
  concentration at 2 h: 1.15 µM

## O=C(O)c1cn(C2CC2)c2cc(N3CCNCC3)c(F)cc2c1=O [CIPROFLOXACIN]
[3]
  concentration at 2 h: 3.8 µM
